Assay results: patent US20250353891A1 (MEDIMMUNE LIMITED, priority 2022, published 2025)
Starred links: 1 amine or outer side, 2 acyl side, 3 side chain; linkers in the order of their positions; H or OH if unused. Non-standard residues stand in square brackets, D forms with d. Residues, ends and D or L forms follow the SMILES beside them. Groups on a side chain read outwards from the residue. *: point of attachment. C20 diacid = O=C(O)CCCCCCCCCCCCCCCCCCC(=O)*; C18 diacid = O=C(O)CCCCCCCCCCCCCCCCC(=O)*; γGlu = O=C(O)[C@H](CCC(=O)[*:2])N[*:1]; αMeF = C[C@](N)(Cc1ccccc1)C(=O)O; AEEA = NCCOCCOCC(=O)O; Aib = CC(C)(N)C(=O)O

Tests used:
[1] = target: human glucagon receptor (hGCGR) (Homo sapiens, UniProt P47871); experiment: cAMP production (HTRF) in CHO cells expressing hGCGR; type: cell-based; parameters: expressed in transfected cells; settings: Table 6, peptides modified at position 17; cAMP in CHO hGCGR cells; geometric mean; read-out: hGluc-R EC50
Method in brief: (§1)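 Cells were resuspended in assay buffer at batch-optimized density, typically 1×10^5 cells/mL for hGLP-1R and 2×10^5 cells/mL for hGCGR. After 30 min incubation at room temperature with compound, cAMP was measured by two-step HTRF. EC50 values came from 4-parameter logistic fits of % Delta F.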

[2] = target: human GLP-1 receptor (hGLP-1R) (Homo sapiens, UniProt P43220); experiment: cAMP production (HTRF) in CHO cells expressing hGLP-1R; type: cell-based; parameters: expressed in transfected cells; settings: for EC50: Table 6, peptides modified at position 17, cAMP in CHO hGLP-1R cells, geometric mean, read-out: hGLP-1R EC50; for % Relative Potency Ratio: Table 6, % GLP-1R activity relative to GLP-1 / % GlucR activity relative to glucagon
Method in brief: as §1

human glucagon receptor (hGCGR), sequence (P47871 26-477): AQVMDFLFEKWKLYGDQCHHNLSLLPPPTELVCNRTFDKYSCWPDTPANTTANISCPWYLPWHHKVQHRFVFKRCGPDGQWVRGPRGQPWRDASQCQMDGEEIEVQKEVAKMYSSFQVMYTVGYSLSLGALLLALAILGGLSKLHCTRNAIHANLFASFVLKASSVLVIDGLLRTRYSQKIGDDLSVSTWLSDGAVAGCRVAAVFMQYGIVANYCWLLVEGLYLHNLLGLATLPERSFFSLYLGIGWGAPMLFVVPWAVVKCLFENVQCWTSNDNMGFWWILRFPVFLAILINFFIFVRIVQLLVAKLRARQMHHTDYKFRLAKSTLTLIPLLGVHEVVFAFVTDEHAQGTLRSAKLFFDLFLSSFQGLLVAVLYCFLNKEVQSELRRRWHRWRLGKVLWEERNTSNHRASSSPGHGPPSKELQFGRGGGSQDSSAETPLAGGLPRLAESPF
human GLP-1 receptor (hGLP-1R), sequence (P43220 24-463): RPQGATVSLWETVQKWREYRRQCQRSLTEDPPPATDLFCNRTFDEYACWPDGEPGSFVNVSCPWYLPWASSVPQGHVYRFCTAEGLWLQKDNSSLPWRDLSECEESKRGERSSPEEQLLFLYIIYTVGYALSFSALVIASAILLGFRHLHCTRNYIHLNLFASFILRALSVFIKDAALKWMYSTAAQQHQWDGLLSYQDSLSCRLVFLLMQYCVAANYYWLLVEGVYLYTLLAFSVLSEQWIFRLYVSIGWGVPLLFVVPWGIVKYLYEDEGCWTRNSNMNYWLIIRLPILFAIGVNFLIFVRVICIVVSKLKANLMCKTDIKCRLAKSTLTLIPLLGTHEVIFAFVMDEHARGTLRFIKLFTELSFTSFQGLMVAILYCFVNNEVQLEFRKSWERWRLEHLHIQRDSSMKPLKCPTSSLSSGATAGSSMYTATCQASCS

SMILES | EC50 [1] | EC50 [2] | % Relative Potency Ratio [2]
CC(C)C[C@H](NC(=O)[C@H](Cc1c[nH]c2ccccc12)NC(=O)[C@H](C)NC(=O)[C@@H](NC(=O)[C@H](Cc1ccccc1)NC(=O)[C@H](CC(=O)O)NC(=O)[C@H](CCC(N)=O)NC(=O)[C@H](C)NC(=O)[C@H](CCCNC(=N)N)NC(=O)[C@H](CCCCNC(=O)COCCOCCNC(=O)COCCOCCNC(=O)CC[C@H](NC(=O)CC[C@H](NC(=O)CCCCCCCCCCCCCCCCC(=O)O)C(=O)O)C(=O)O)NC(=O)[C@@H](NC(=O)[C@H](CC(=O)O)NC(=O)[C@H](CC(C)C)NC(=O)[C@](C)(Cc1ccccc1)NC(=O)[C@H](CCCCN)NC(=O)[C@H](CO)NC(=O)[C@@H](NC(=O)[C@H](CC(=O)O)NC(=O)[C@H](CO)NC(=O)[C@@H](NC(=O)[C@H](Cc1ccccc1)NC(=O)[C@@H](NC(=O)CNC(=O)[C@H](CCC(N)=O)NC(=O)C(C)(C)NC(=O)[C@@H](N)Cc1c[nH]cn1)[C@@H](C)O)[C@@H](C)O)C(C)C)[C@@H](C)O)C(C)C)C(=O)N[C@@H](CCC(=O)O)C(=O)N[C@@H](C)C(=O)NC(C)(C)C(=O)NCC(=O)O [Peptide 417] (H-H[Aib]QGTFTSDVSK[αMeF]LDTK([AEEA-AEEA-γGlu-γGlu-C18 diacid])RAQDFVAWLEA[Aib]G-OH; N-terminus assumed) | 16.4 pM | 33.9 pM | 1.0
CC(C)C[C@H](NC(=O)[C@H](Cc1c[nH]c2ccccc12)NC(=O)[C@H](C)NC(=O)[C@@H](NC(=O)[C@H](Cc1ccccc1)NC(=O)[C@H](CC(=O)O)NC(=O)[C@H](CCC(N)=O)NC(=O)[C@H](C)NC(=O)[C@H](CCCNC(=N)N)NC(=O)[C@H](CCCCNC(=O)COCCOCCNC(=O)COCCOCCNC(=O)CC[C@H](NC(=O)CC[C@H](NC(=O)CCCCCCCCCCCCCCCCCCC(=O)O)C(=O)O)C(=O)O)NC(=O)[C@@H](NC(=O)[C@H](CC(=O)O)NC(=O)[C@H](CC(C)C)NC(=O)[C@](C)(Cc1ccccc1)NC(=O)[C@H](CCCCN)NC(=O)[C@H](CO)NC(=O)[C@@H](NC(=O)[C@H](CC(=O)O)NC(=O)[C@H](CO)NC(=O)[C@@H](NC(=O)[C@H](Cc1ccccc1)NC(=O)[C@@H](NC(=O)CNC(=O)[C@H](CCC(N)=O)NC(=O)C(C)(C)NC(=O)[C@@H](N)Cc1c[nH]cn1)[C@@H](C)O)[C@@H](C)O)C(C)C)[C@@H](C)O)C(C)C)C(=O)N[C@@H](CCC(=O)O)C(=O)N[C@@H](C)C(=O)NC(C)(C)C(=O)NCC(=O)O [Peptide 418] (H-H[Aib]QGTFTSDVSK[αMeF]LDTK([AEEA-AEEA-γGlu-γGlu-C20 diacid])RAQDFVAWLEA[Aib]G-OH; N-terminus assumed) | 222 pM | 88.1 pM | 5.0
CC(C)C[C@H](NC(=O)[C@H](Cc1c[nH]c2ccccc12)NC(=O)[C@H](CCCNC(=N)N)NC(=O)[C@@H](NC(=O)[C@H](Cc1ccccc1)NC(=O)[C@H](CC(=O)O)NC(=O)[C@H](CCC(N)=O)NC(=O)[C@H](C)NC(=O)[C@H](CCCNC(=N)N)NC(=O)[C@H](CCCCNC(=O)COCCOCCNC(=O)COCCOCCNC(=O)CC[C@H](NC(=O)CCCCCCCCCCCCCCCCC(=O)O)C(=O)O)NC(=O)[C@H](CCCNC(=N)N)NC(=O)[C@H](CC(=O)O)NC(=O)[C@H](CC(C)C)NC(=O)[C@](C)(Cc1ccccc1)NC(=O)[C@H](CCCCN)NC(=O)[C@H](CO)NC(=O)[C@@H](NC(=O)[C@H](CC(=O)O)NC(=O)[C@H](CO)NC(=O)[C@@H](NC(=O)[C@H](Cc1ccccc1)NC(=O)[C@@H](NC(=O)CNC(=O)[C@H](CCC(N)=O)NC(=O)C(C)(C)NC(=O)[C@@H](N)Cc1c[nH]cn1)[C@@H](C)O)[C@@H](C)O)C(C)C)C(C)C)C(=O)N[C@@H](CC(C)C)C(=O)NC(C)(C)C(=O)N[C@H](C(=O)N[C@@H](CCC(=O)O)C(=O)O)[C@@H](C)O [Peptide 421] (H-H[Aib]QGTFTSDVSK[αMeF]LDRK([AEEA-AEEA-γGlu-C18 diacid])RAQDFVRWLL[Aib]TE-OH; N-terminus assumed) | 180 pM | 87.3 pM | 4.1
CC(C)C[C@H](NC(=O)[C@H](Cc1c[nH]c2ccccc12)NC(=O)[C@H](CCCNC(=N)N)NC(=O)[C@@H](NC(=O)[C@H](Cc1ccccc1)NC(=O)[C@H](CC(=O)O)NC(=O)[C@H](CCC(N)=O)NC(=O)[C@H](C)NC(=O)[C@H](CCCNC(=N)N)NC(=O)[C@H](CCCCNC(=O)COCCOCCNC(=O)COCCOCCNC(=O)CC[C@H](NC(=O)CCCCCCCCCCCCCCCCC(=O)O)C(=O)O)NC(=O)[C@H](CCCNC(=N)N)NC(=O)[C@H](CC(=O)O)NC(=O)[C@H](CC(C)C)NC(=O)[C@](C)(Cc1ccccc1)NC(=O)[C@H](CCCCN)NC(=O)[C@H](CO)NC(=O)[C@@H](NC(=O)[C@H](CC(=O)O)NC(=O)[C@H](CO)NC(=O)[C@@H](NC(=O)[C@H](Cc1ccccc1)NC(=O)[C@@H](NC(=O)CNC(=O)[C@H](CCC(N)=O)NC(=O)C(C)(C)NC(=O)[C@@H](N)Cc1c[nH]cn1)[C@@H](C)O)[C@@H](C)O)C(C)C)C(C)C)C(=O)N[C@@H](CC(C)C)C(=O)NC(C)(C)C(=O)N[C@H](C(=O)N[C@@H](CCC(=O)O)C(N)=O)[C@@H](C)O [Peptide 422] (H-H[Aib]QGTFTSDVSK[αMeF]LDRK([AEEA-AEEA-γGlu-C18 diacid])RAQDFVRWLL[Aib]TE-NH2; N-terminus assumed) | 123 pM | 27.6 pM | 8.9

Second part, the compound after the results:

EC50 [1] | EC50 [2] | % Relative Potency Ratio [2] | SMILES
581 pM | 67.7 pM | 17.0 | CC(C)C[C@H](NC(=O)[C@H](Cc1c[nH]c2ccccc12)NC(=O)[C@H](CCCNC(=N)N)NC(=O)[C@@H](NC(=O)[C@H](Cc1ccccc1)NC(=O)[C@H](CC(=O)O)NC(=O)[C@H](CCC(N)=O)NC(=O)[C@H](C)NC(=O)[C@H](CCCNC(=N)N)NC(=O)[C@H](CCCCNC(=O)COCCOCCNC(=O)COCCOCCNC(=O)CC[C@H](NC(=O)CCCCCCCCCCCCCCCCCCC(=O)O)C(=O)O)NC(=O)[C@H](CO)NC(=O)[C@H](CCC(=O)O)NC(=O)[C@H](CC(C)C)NC(=O)[C@](C)(Cc1ccccc1)NC(=O)[C@H](CCCCN)NC(=O)[C@H](CO)NC(=O)[C@@H](NC(=O)[C@H](CC(=O)O)NC(=O)[C@H](CO)NC(=O)[C@@H](NC(=O)[C@H](Cc1ccccc1)NC(=O)[C@@H](NC(=O)CNC(=O)[C@H](CCC(N)=O)NC(=O)C(C)(C)NC(=O)[C@@H](N)Cc1c[nH]cn1)[C@@H](C)O)[C@@H](C)O)C(C)C)C(C)C)C(=O)N[C@@H](CCC(=O)O)C(=O)N[C@@H](C)C(=O)NC(C)(C)C(=O)NCC(=O)O [Peptide 416] (H-H[Aib]QGTFTSDVSK[αMeF]LESK([AEEA-AEEA-γGlu-C20 diacid])RAQDFVRWLEA[Aib]G-OH; N-terminus assumed)
264 pM | 96.9 pM | 5.4 | CC(C)C[C@H](NC(=O)[C@H](Cc1c[nH]c2ccccc12)NC(=O)[C@H](CCCNC(=N)N)NC(=O)[C@@H](NC(=O)[C@H](Cc1ccccc1)NC(=O)[C@H](CC(=O)O)NC(=O)[C@H](CCC(N)=O)NC(=O)[C@H](C)NC(=O)[C@H](CCCNC(=N)N)NC(=O)[C@H](CCCCNC(=O)COCCOCCNC(=O)COCCOCCNC(=O)CC[C@H](NC(=O)CCCCCCCCCCCCCCCCC(=O)O)C(=O)O)NC(=O)[C@@H](NC(=O)[C@H](CC(=O)O)NC(=O)[C@H](CC(C)C)NC(=O)[C@](C)(Cc1ccccc1)NC(=O)[C@H](CCCCN)NC(=O)[C@H](CO)NC(=O)[C@@H](NC(=O)[C@H](CC(=O)O)NC(=O)[C@H](CO)NC(=O)[C@@H](NC(=O)[C@H](Cc1ccccc1)NC(=O)[C@@H](NC(=O)CNC(=O)[C@H](CCC(N)=O)NC(=O)C(C)(C)NC(=O)[C@@H](N)Cc1c[nH]cn1)[C@@H](C)O)[C@@H](C)O)C(C)C)[C@@H](C)O)C(C)C)C(=O)N[C@@H](CCC(=O)O)C(=O)NC(C)(C)C(=O)N[C@@H](CCC(=O)O)C(=O)O [Peptide 419] (H-H[Aib]QGTFTSDVSK[αMeF]LDTK([AEEA-AEEA-γGlu-C18 diacid])RAQDFVRWLE[Aib]E-OH; N-terminus assumed)
2220 pM | 26.1 pM | 168.1 | CC(C)C[C@H](NC(=O)[C@H](Cc1c[nH]c2ccccc12)NC(=O)[C@H](CCCNC(=N)N)NC(=O)[C@@H](NC(=O)[C@H](Cc1ccccc1)NC(=O)[C@H](CC(=O)O)NC(=O)[C@H](CCC(N)=O)NC(=O)[C@H](C)NC(=O)[C@H](CCCNC(=N)N)NC(=O)[C@H](CCCCNC(=O)COCCOCCNC(=O)COCCOCCNC(=O)CC[C@H](NC(=O)CCCCCCCCCCCCCCCCC(=O)O)C(=O)O)NC(=O)[C@H](CCCCN)NC(=O)[C@H](CC(=O)O)NC(=O)[C@H](CC(C)C)NC(=O)[C@](C)(Cc1ccccc1)NC(=O)[C@H](CCCCN)NC(=O)[C@H](CO)NC(=O)[C@@H](NC(=O)[C@H](CC(=O)O)NC(=O)[C@H](CO)NC(=O)[C@@H](NC(=O)[C@H](Cc1ccccc1)NC(=O)[C@@H](NC(=O)CNC(=O)[C@H](CCC(N)=O)NC(=O)C(C)(C)NC(=O)[C@@H](N)Cc1c[nH]cn1)[C@@H](C)O)[C@@H](C)O)C(C)C)C(C)C)C(=O)N[C@@H](CCCCN)C(=O)NC(C)(C)C(=O)N[C@H](C(=O)N[C@@H](CCC(=O)O)C(=O)O)[C@@H](C)O [Peptide 423] (H-H[Aib]QGTFTSDVSK[αMeF]LDKK([AEEA-AEEA-γGlu-C18 diacid])RAQDFVRWLK[Aib]TE-OH; N-terminus assumed)
